{
  "source": "patent US7250268B2",
  "about": "“Assay for measuring IκB kinase activity and identifying IκB kinase modulators” (Bristol-Myers Squibb Company, priority 2003, dated 2007)",
  "key": {"proteasome [1]": {"target": "T1, proteasome (Homo sapiens, UniProt P28074)", "T1 construct": "other: Jurkat IκB-Bla cells, TNFα stimulation; effect on the TNFα-stimulated decrease in reporter level; other: 10 μM for 60 minutes prior to TNFα 10 ng/ml; CCF2/AM", "T1 sequence (P28074 60-263)": "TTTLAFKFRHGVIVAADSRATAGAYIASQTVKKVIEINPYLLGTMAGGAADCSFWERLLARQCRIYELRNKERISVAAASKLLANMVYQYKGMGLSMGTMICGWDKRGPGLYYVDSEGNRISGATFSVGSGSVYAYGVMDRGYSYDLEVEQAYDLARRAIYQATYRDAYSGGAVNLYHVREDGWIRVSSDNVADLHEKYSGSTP", "T1 sequence (P28072 35-239 partner)": "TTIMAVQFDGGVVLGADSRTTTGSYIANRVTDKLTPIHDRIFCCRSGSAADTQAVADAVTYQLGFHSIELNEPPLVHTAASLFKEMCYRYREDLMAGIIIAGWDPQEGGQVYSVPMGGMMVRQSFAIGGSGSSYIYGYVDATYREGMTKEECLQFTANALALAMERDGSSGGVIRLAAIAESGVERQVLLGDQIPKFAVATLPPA", "T1 sequence (Q99436 44-277 partner)": "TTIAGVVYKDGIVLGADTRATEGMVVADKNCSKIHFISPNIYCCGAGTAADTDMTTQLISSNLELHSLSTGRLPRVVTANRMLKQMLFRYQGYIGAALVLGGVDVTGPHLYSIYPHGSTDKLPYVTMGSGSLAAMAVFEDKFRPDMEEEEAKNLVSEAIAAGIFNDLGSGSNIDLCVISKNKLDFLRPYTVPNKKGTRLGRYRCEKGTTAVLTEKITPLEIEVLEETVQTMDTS", "assay": "Jurkat IκB-Bla reporter assay, inhibition of the TNFα-stimulated decrease in reporter level by proteasome inhibitors", "type": "cell-based", "procedure": "(§1) Therefore, the requirement of proteasome activity on β-lactamase activity was tested. […] Reporter activity was determined using CCF2/AM."}, "proteasome [2]": {"tested_on": "proteasome", "assay": "Jurkat IκB-Bla reporter assay, inhibition of the TNFα-stimulated decrease in reporter level by proteasome inhibitors", "type": "cell-based, Human", "settings": "10 μM, no TNFα; FIG. 10", "procedure": "as §1"}, "Jurkat IκB-Bla cells": {"tested_on": "Jurkat IκB-Bla cells", "assay": "Responsiveness of Jurkat IκB-Bla cells to proinflammatory treatments that activate the NFκB pathway", "type": "cell-based", "procedure": "The responsiveness of the Jurkat IκB-Bla cells to proinflammatory treatments known to activate the NFκB pathway was tested. Cells were treated with 10 ng/ml TNFα, 10 nM PMA, 10 μg/ml PHA or 100 ng/ml IL-1β for the times indicated in FIG. 8A and then loaded with CCF2 and read on a fluorescence plate reader. […] The apparent insensitivity to IL-1β may be explained by low expression of IL-1 receptor in Jurkat cells.\nTo establish that the TNFα-stimulated decrease in β-lactamase activity was due to phosphorylation of IκB on serines-32 and -36, the responsiveness of Jurkat cells expressing the S32A, S36A IκB mutant as a fusion with β-lactamase was tested. The IκB(S32A, S36A)-Bla cell line was created exactly as described above for wild-type IκB-Bla cells. The cells were treated with 10 ng/ml TNFα for 30 minutes and then loaded with CCF2/AM. As shown in the comparison of wild-type construct to mutant in FIGS. 9A and 9B, respectively, the mutation of serines-32 and -36 abolished the decrease in β-lactamase activity in response to TNFα treatment."}},
  "note": "Where a SMILES comes first, the peptide text is derived from it. [ ]: non-standard residue; d: D form. The star is where a group is joined. Nle = CCCC[C@H](N)C(=O)O; Cbz = O=C(OCc1ccccc1)*",
  "data": [
    {"compound": "CCCC[C@@H](C=O)NC(=O)[C@H](CC(C)C)NC(=O)[C@H](CC(C)C)NC(C)=O", "note": "[ALLN] (Ac-Leu-Leu-[Nle]-aldehyde)", "values": [
      {"measurement": "IC50", "setting": "proteasome [1]; Jurkat IκB-Bla cells, TNFα stimulation, data not shown, read-out: IC50 for inhibition of the TNFα-stimulated decrease in reporter levels", "result": 5, "unit": "µM"}
    ]},
    {"compound": "CC(C)C[C@@H](C=O)NC(=O)[C@H](CC(C)C)NC(=O)[C@H](CC(C)C)NC(=O)OCc1ccccc1", "note": "[MG132] (Cbz-Leu-Leu-Leu-aldehyde)", "values": [
      {"measurement": "effect of inhibitor alone on reporter levels", "setting": "proteasome [2]", "result": "little to no effect"},
      {"measurement": "effect on the TNFα-stimulated decrease in reporter level", "setting": "proteasome [1]; 10 μM for 60 minutes prior to TNFα 10 ng/ml, CCF2/AM, FIG. 10", "result": "efficiently inhibited"}
    ]},
    {"compound": "C[C@@H]1C[C@@H]([C@H](O)CC2CC(=O)NC(=O)C2)C(=O)[C@@H](C)C1", "note": "[cycloheximide]", "values": [
      {"measurement": "effect of blocking protein synthesis on the TNFα-stimulated decrease in β-lactamase activity", "setting": "Jurkat IκB-Bla cells; 100 μg/ml added at the time of TNFα addition (10 ng/ml, 30 minutes), FIG. 9", "result": "did not have a strong synergistic effect"}
    ]},
    {"compound": "IL-1β: proinflammatory cytokine; low IL-1 receptor expression in Jurkat cells suggested", "values": [
      {"measurement": "response of IκB-Bla reporter level (β-lactamase activity) to treatment", "setting": "Jurkat IκB-Bla cells; 10 nM PMA, 10 μg/ml PHA or 100 ng/ml IL-1β, extended treatment for PMA and PHA, FIG. 8A", "result": "insensitivity"}
    ]},
    {"compound": "TNFα", "values": [
      {"measurement": "decrease in β-lactamase activity", "setting": "Jurkat IκB-Bla cells; 10 ng/ml, within 30 minutes, CCF2, FIG. 8A", "result": 2, "unit": "fold"}
    ]}
  ]
}
